Read-outs that look alike come from different tables or passages of the source.

Series [1] deals with multiple myeloma. To be noted: Ph II, patients administered pomalidomide; cited from earlier work.
Series [2] concerns OPM2 xenograft. The experiment in a line: OPM2 xenograft studies taken together (summary and conclusion). Type of series: in vivo, mice. The note with it: elotuzumab 0.5 mg/kg, pomalidomide 5 mg/kg, dexamethasone 5 mg/kg. The method, then:
The present invention is based on data from preclinical studies conducted in female SCID mice (6-8 weeks old) that were implanted SC (subcutaneous implantation) with the multiple myeloma cell line OPM-2 which were treated with Elotuzumab IP (intraperitoneal administration) alone, treated with pomalidomide alone, treated with dexamethasone alone, or treated in combination with each other. […] All treatments were well tolerated, with no significant changes in body weights or overt signs of clinical toxicity.
Dosing regimen for dexamethasone was QD×7.

Series [3] relates to OPM2 xenograft. To be noted: for Median Days to Target Size / LCK / CR (complete tumor regressions) / PR (partial tumor regressions) / TGI: Study #2; for Median Days to Target Size: ELO 0.5 mg/kg IP 2QW from d12, POM 5 mg/kg PO QD × 5 d12, 19, DEX 5 mg/kg IP QD × 7 from d12, target size 1 gm; for LCK / CR (complete tumor regressions) / PR (partial tumor regressions) / TGI: ELO 0.5, POM 5, DEX 5 mg/kg; for CR (complete tumor regressions) / PR (partial tumor regressions): mice of 8; for TGI: versus untreated mice. Here is the method:
FIGS. 4A-B. Study #2 (OPM2-16), Antitumor Activity, Elotuzumab Efficacy in Combination with Pomalidomide and Dexamethasone in OPM2 Multiple Myeloma Xenograft. Mice with established OPM2 xenograft tumors were randomized into 2 groups with 8 mice per group and were administered one of the following sets of regimens: (A) Control group was left untreated (filled circles), elotuzumab (0.5 mg/kg, twice weekly IP for 6 doses starting d12, open circles), dexamethasone (5 mg/kg, daily IP for 7 doses starting on d12, open triangles), elotuzumab (0.5 mg/kg, twice weekly IP for 8 doses starting d12) plus dexamethasone combination (filled triangles), pomalidomide (5 mg/kg, daily for 5 days orally starting on d12 and then again for 5 days on d19) plus dexamethasone combination (dashes); or (B) Control group was left untreated (filled circles), elotuzumab (0.5 mg/kg, twice weekly IP for 6 doses starting d12, open circles), pomalidomide (5 mg/kg, daily for 5 days orally starting on d12 and then again for 5 days on d19, open squares), elotuzumab (0.5 mg/kg, twice weekly IP for 8 doses starting d12) plus pomalidomide combination (filled squares), elotuzumab (0.5 mg/kg, twice weekly IP for 8 doses starting d12) plus pomalidomide plus dexamethasone combination (x's). The data are presented as means+/−standard deviation.
FIGS. 5A-H. Study #2 (OPM2-16), Anti Tumor Activity of Elotuzumab, Pomalidomide, and Dexamethasone as Single Agent and Combination Treatment in OPM2 Multiple Myeloma Xenograft tumor model. Mice with established OPM2 xenograft tumors were randomized into groups with 8 mice per group and were administered one of the following regimens: (A): untreated (control); (B): elotuzumab; (C): pomalidomide; (D): dexamethasone; (E): elotuzumab plus pomalidomide; (F): elotuzumab plus dexamethasone; (G): pomalidomide plus dexamethasone; or (H): elotuzumab plus pomalidomide plus dexamethasone. Data represent tumor weight measured in individual animals. Dosing route and regimen are described in FIG. 4 and Example 1.
(§1) Animals: All mice were obtained from Taconic Biosciences (Germantown, N.Y.), and maintained in ammonia-free environment in a defined and pathogen-free colony. All animal procedures were approved by the Bristol-Myers Squibb (BMS) Institutional Animal Care and Use Committee. The animal care and use program at BMS has been fully accredited by the Association for Assessment and Accreditation of Laboratory Animal Care International (AAALAC).
(§2) Animal Models: The human tumor xenograft OPM2 was grown in IcrTac scid mice (ICRPrkdcscid). Treated animals were checked daily for treatment related toxicity/mortality. Each group of animals was weighed before the initiation of treatment (Wt1) and then weighed again following the last treatment dose (Wt2). The difference in body weight (Wt2-Wt1) provides a measure of treatment-related toxicity. Additional weights were recorded at each measurement date to monitor toxicity.
(§3) Tumor response was determined by measurement of tumors with a caliper twice a week, until the tumors reached a predetermined “target” size of 1 gm. Tumor weights (mg) were estimated from the formula: Tumor weight=(length×width2)/2.
(§4) Tumor response end-point was expressed in terms of tumor cell kill and tumor growth inhibition. Tumor growth delay was defined as the difference in time (days) required for the treated tumors (T) to reach a predetermined target size compared to those in the control group (C). For this purpose tumor weight of a group was expressed as […] tumor weight (MTW).
(§5) Tumor cell kill was expressed in terms of log cell kill (LCK), represented by the equation LCK=[…] where tumor volume doubling time (TVDT) was first calculated with the formula: TVDT=Median time (days) for control tumor weight to reach target size−Median time (days) for control tumor weight to reach half the target size.

For series [4], the system named is OPM2 xenograft. The note with it: for Median Days to Target Size / LCK / CR (complete tumor regressions) / PR (partial tumor regressions) / TGI: Study #1; for Median Days to Target Size: ELO 0.5 mg/kg IP 2QW from d16, POM 5 mg/kg PO QD × 5 d16, 23, DEX 5 mg/kg IP QD × 7 from d16, target size 1 gm; for LCK / CR (complete tumor regressions) / PR (partial tumor regressions) / TGI: ELO 0.5, POM 5, DEX 5 mg/kg; for CR (complete tumor regressions) / PR (partial tumor regressions): mice of 8; for TGI: versus untreated mice; for Max % Weight Loss: mouse, in vivo. The method, then: Mice with established OPM2 xenograft tumors were randomized into 2 groups with 8 mice per group and were administered one of the following sets of regimens: (A) Control group was left untreated (filled circles), elotuzumab (0.5 mg/kg, twice weekly IP for 7 doses starting d16, open circles), dexamethasone (5 mg/kg, daily IP for 7 doses starting on d16, open triangles), elotuzumab plus dexamethasone combination (filled triangles), pomalidomide (5 mg/kg, daily for 5 days orally starting on d16 and then again for 5 days on d23) plus dexamethasone combination (dashes); or (B) Control group was left untreated (filled circles), elotuzumab (0.5 mg/kg, twice weekly IP for 7 doses starting d16, open circles), pomalidomide (5 mg/kg, daily for 5 days orally starting on d16 and then again for 5 days on d23, open squares), elotuzumab (0.5 mg/kg, twice weekly IP for 10 doses starting d16) plus pomalidomide combination (filled squares), elotuzumab (10 doses) plus pomalidomide plus dexamethasone combination (x's). The data are presented as means+/−standard deviation.
Mice with established OPM2 xenograft tumors were randomized into groups with 8 mice per group and were administered one of the following regimens: (A): untreated (control); (B): elotuzumab; (C): pomalidomide; (D): dexamethasone; (E): elotuzumab plus pomalidomide; (F): elotuzumab plus dexamethasone; (G): pomalidomide plus dexamethasone; or (H): elotuzumab plus pomalidomide plus dexamethasone. Data represent tumor weight measured in individual animals. Dosing route and regimen are described in FIG. 2 and Example 1.
as §1, §2, §3, §4, §5

Series [5] concerns relapsed and refractory MM. To be noted: cited from earlier work.
Series [6] has as its system NK cells. The note with it: independent of the Fc portion of the antibody; cited from earlier work.
[7] abbreviates: 38 subjects, including 22 with dexamethasone added.

Consider `Nc1cccc2c1C(=O)N(C1CCC(=O)NC1=O)C2=O` (racemic) [Pomalidomide, (RS)-4-amino-2-(2,6-dioxo-piperidin-3-yl)-isoindole-1,3-dione], for which, in series [1], the “median progression free survival” value was 11.6 months, the overall response rate is 63% and the “patients achieving VGPR or CR” value is 33%. The “efficacy / effect on tumor growth (in words)” value in series [2] is “inhibited tumor growth”. In series [3], the “Median Days to Target Size” value is 22.5 days, the LCK is listed as 0.33, the “CR (complete tumor regressions)” value is reported as 0/8 and the “PR (partial tumor regressions)” value is recorded as 0/8. Besides, in series [3], the tumour growth inhibition (TGI) amounted to 41.4%. Also, the “Max % Weight Loss” value in series [3] (mouse, in vivo) is listed as −1.1%. Besides, in series [4], the “Median Days to Target Size” value was 29.8 days, the LCK is given as 0.26, the “CR (complete tumor regressions)” value is 0/8 and the “PR (partial tumor regressions)” value was 0/8. Besides, in series [4], the inhibition of tumour growth (TGI) amounted to 52% and the “Max % Weight Loss” value is on record as −1.1%. In addition, the “number of DLTs (Grade 4 neutropenia)” value in series [5] (5 mg daily Days 1-21 of 28-day cycle) is listed as 4. In addition, in series [5] (38 subjects, 2-5 mg), the “treatment-emergent Grade 3/4 anemia” value is recorded as 21%, the “treatment-emergent Grade 3/4 fatigue” value is on record as 16%, the “treatment-emergent Grade 3/4 neutropenia” value is 53% and the “treatment-emergent Grade 3/4 thrombocytopenia” value is listed as 18%. Besides, in series [5] (setting [7]), the “subjects achieving CR” value was 3%, the “subjects achieving ≥MR or better” value was 42% and the “subjects achieving ≥PR” value was 21%. The MTD in series [5] (Days 1-21 of 28-day cycle) is on record as 4 mg/day.
Regarding “Elotuzumab: humanized monoclonal IgG1 antibody directed against CS-1; VL SEQ ID NO:1, VH SEQ ID NO:2”, the “efficacy / effect on tumor growth (in words)” value in series [2] is “inhibited tumor growth”. Moreover, in series [3], the “Median Days to Target Size” value was 24.0 days, the LCK stood at 0.47, the “CR (complete tumor regressions)” value is 0/8 and the “PR (partial tumor regressions)” value is 0/8. Besides, in series [3], the inhibition of tumour growth (TGI) is given as 57.7%. Further, in series [6], the NK cell activation result was “activate NK cells by up-regulation of CD69 and granzyme B expression”. Further, in series [4], the “Median Days to Target Size” value came to 35.0 days, the LCK amounted to 0.61, the “CR (complete tumor regressions)” value is 0/8 and the “PR (partial tumor regressions)” value was 0/8. Also, in series [4], the TGI amounted to 70.3% and the “Max % Weight Loss” value was −2.2%.

One may read the TGI as the reduction of tumour growth relative to the control group.
